Results reported in patent US8729061B2, “Pyrrolidine derivatives” (Hoffmann-La Roche Inc., priority 2011, dated 2014).

Tests used:
Assay type in all cases: biochemical
human Cat L = human Cat L (Homo sapiens (Human), UniProt P07711); assay: Cathepsin enzyme inhibition assay (fluorogenic peptide substrate), Cat L; conditions: enzyme 1 nM, substrate Z-Val-Val-Arg-AMC 20 μM, pH 6.5
Procedure, shortened: (§1)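 Fluorogenic cleavage assay run separately on human and mouse enzymes, each at 1 nM, in 100 mM potassium phosphate pH 6.5 with 5 mM EDTA, 5 mM DTT and 0.001% Triton X-100. Reaction started with 20 μM Z-Val-Val-Arg-AMC, or Z-Leu-Arg-AMC for Cat K; AMC read at ex 360/em 465 nm. IC50 calculated by standard methods.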

human Cathepsin S = human Cathepsin S (Homo sapiens (Human), UniProt P25774); assay: Cathepsin enzyme inhibition assay (fluorogenic peptide substrate), Cat S; conditions: enzyme 1 nM, substrate Z-Val-Val-Arg-AMC 20 μM, pH 6.5
human Cathepsin S, sequence (P25774 115-331): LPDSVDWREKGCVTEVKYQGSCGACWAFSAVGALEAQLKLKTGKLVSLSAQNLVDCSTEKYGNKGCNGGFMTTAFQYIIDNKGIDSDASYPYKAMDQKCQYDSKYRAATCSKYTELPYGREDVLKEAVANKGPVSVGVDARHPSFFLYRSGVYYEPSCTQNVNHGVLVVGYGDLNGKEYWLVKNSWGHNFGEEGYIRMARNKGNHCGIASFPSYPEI
Procedure, shortened: as §1

human Cat K = human Cat K (Homo sapiens (Human), UniProt P43235); assay: Cathepsin enzyme inhibition assay (fluorogenic peptide substrate), Cat K; conditions: enzyme 1 nM, substrate Z-Leu-Arg-AMC 20 μM, pH 6.5
human Cat K, sequence (P43235 115-329): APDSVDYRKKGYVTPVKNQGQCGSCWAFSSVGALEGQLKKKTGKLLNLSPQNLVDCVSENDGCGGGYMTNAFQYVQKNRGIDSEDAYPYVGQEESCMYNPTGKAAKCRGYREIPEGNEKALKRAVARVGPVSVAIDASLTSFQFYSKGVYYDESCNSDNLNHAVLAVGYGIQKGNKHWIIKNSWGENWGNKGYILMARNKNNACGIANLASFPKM
Procedure, shortened: as §1

human Cat B = human Cat B (Homo sapiens (Human), UniProt P07858); assay: Cathepsin enzyme inhibition assay (fluorogenic peptide substrate), Cat B; conditions: enzyme 1 nM, substrate Z-Val-Val-Arg-AMC 20 μM, pH 6.5
Procedure, shortened: as §1

human Cat L, sequence (P07711 114-333): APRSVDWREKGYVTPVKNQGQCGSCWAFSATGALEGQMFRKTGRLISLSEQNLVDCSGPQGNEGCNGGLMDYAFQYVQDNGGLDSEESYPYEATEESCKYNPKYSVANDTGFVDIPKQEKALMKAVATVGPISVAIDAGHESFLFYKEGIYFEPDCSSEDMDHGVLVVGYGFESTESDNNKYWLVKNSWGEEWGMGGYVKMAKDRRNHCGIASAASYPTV

| IC50 (human Cat L) | IC50 (human Cathepsin S) | IC50 (human Cat K) | IC50 (human Cat B) | SMILES |
| --- | --- | --- | --- | --- |
| 2 nM | 0.901 nM | 34.4 nM | 30.2 nM | CC[C@H](NC(=O)[C@@H]1C[C@@H](S(=O)(=O)c2ccccc2Cl)CN1C(=O)C1(c2ccc(Cl)cc2)CC1)C(=O)C(=O)NCCc1ccccc1 [Example 49, (2S,4R)-1-(1-(4-chlorophenyl)cyclopropanecarbonyl)-4-(2-chlorophenylsulfonyl)-N—((S)-1,2-dioxo-1-(phenethylamino)pentan-3-yl)pyrrolidine-2-carboxamide] |
| 8.6 nM | 2.76 nM | 119 nM | 68.8 nM | CC[C@H](NC(=O)[C@@H]1C[C@@H](S(=O)(=O)c2ccccc2Cl)CN1C(=O)C1(c2ccc(Cl)cc2)CC1)C(=O)C(=O)NCCc1cccc2ccccc12 [Example 50, (2S,4R)-1-(1-(4-chlorophenyl)cyclopropanecarbonyl)-4-(2-chlorophenylsulfonyl)-N—((S)-1-(2-(naphthalen-1-yl)ethylamino)-1,2-dioxopentan-3-yl)pyrrolidine-2-carboxamide] |
| 13 nM | 3.08 nM | 159 nM | 172 nM | CC[C@H](NC(=O)[C@@H]1C[C@@H](S(=O)(=O)c2ccccc2Cl)CN1C(=O)C1(c2ccc(Cl)cc2)CC1)C(=O)C(=O)NCCc1ccc2ccccc2c1 [Example 51, (2S,4R)-1-(1-(4-chlorophenyl)cyclopropanecarbonyl)-4-(2-chlorophenylsulfonyl)-N—((S)-1-(2-(naphthalen-2-yl)ethylamino)-1,2-dioxopentan-3-yl)pyrrolidine-2-carboxamide] |
| 9.4 nM | 1.96 nM | 317 nM | 386 nM | CC[C@H](NC(=O)[C@@H]1C[C@@H](S(=O)(=O)c2ccccc2Cl)CN1C(=O)C1(c2ccc(Cl)cc2)CC1)C(=O)C(=O)NCc1cccc2ccccc12 [Example 52, (2S,4R)-1-(1-(4-chlorophenyl)cyclopropanecarbonyl)-4-(2-chlorophenylsulfonyl)-N—((S)-1-(naphthalen-1-ylmethylamino)-1,2-dioxopentan-3-yl)pyrrolidine-2-carboxamide] |
| 2.6 nM | 0.63 nM | 82 nM | 85.4 nM | CC[C@H](NC(=O)[C@@H]1C[C@@H](S(=O)(=O)c2ccccc2Cl)CN1C(=O)C1(c2ccc(Cl)cc2)CC1)C(=O)C(=O)NCCOC [Example 54, (2S,4R)-1-(1-(4-chlorophenyl)cyclopropanecarbonyl)-4-(2-chlorophenylsulfonyl)-N—((S)-1-(2-methoxyethylamino)-1,2-dioxopentan-3-yl)pyrrolidine-2-carboxamide] |

Further lines, the molecule ahead of its results:

| SMILES | IC50 (human Cat L) | IC50 (human Cathepsin S) | IC50 (human Cat K) | IC50 (human Cat B) |
| --- | --- | --- | --- | --- |
| CC[C@H](NC(=O)[C@@H]1C[C@@H](S(=O)(=O)c2ccc(O[C@@H](C)C(F)(F)F)cc2Cl)CN1C(=O)C1(c2ccc(Cl)cc2)CC1)C(=O)C(=O)NC1CC1 [Example 45, (2S,4R)-4-(2-chloro-4-((S)-1,1,1-trifluoropropan-2-yloxy)phenylsulfonyl)-1-(1-(4-chlorophenyl)cyclopropanecarbonyl)-N—((S)-1-(cyclopropylamino)-1,2-dioxopentan-3-yl)pyrrolidine-2-carboxamide] | 74.9 nM | 5.43 nM | 212 nM | 335 nM |
| CCC[C@H](NC(=O)[C@@H]1C[C@@H](S(=O)(=O)c2ccc(O[C@@H](C)C(F)(F)F)cc2Cl)CN1C(=O)C1(c2ccc(Cl)cc2)CC1)C(=O)C(=O)NC1CC1 [Example 46, (2S,4R)-4-(2-chloro-4-((S)-1,1,1-trifluoropropan-2-yloxy)phenylsulfonyl)-1-(1-(4-chlorophenyl)cyclopropanecarbonyl)-N—((S)-1-(cyclopropylamino)-1,2-dioxohexan-3-yl)pyrrolidine-2-carboxamide] | 67.1 nM | 5.98 nM | 251 nM | 224 nM |
| CCC[C@H](NC(=O)[C@@H]1C[C@@H](S(=O)(=O)c2ccccc2Cl)CN1C(=O)C1(c2ccc(Cl)cc2)CC1)C(=O)C(=O)N(C)C1CC1 [Example 47, (2S,4R)-1-(1-(4-chlorophenyl)cyclopropanecarbonyl)-4-(2-chlorophenylsulfonyl)-N—((S)-1-(cyclopropyl(methyl)amino)-1,2-dioxohexan-3-yl)pyrrolidine-2-carboxamide] | 283 nM | 22.3 nM | 998 nM | 1540 nM |
| CCC[C@H](NC(=O)[C@@H]1C[C@@H](S(=O)(=O)c2ccc(F)cc2Cl)CN1C(=O)C1(c2ccc(Cl)cc2)CC1)C(=O)C(=O)NC1CC1 [Example 48, (2S,4R)-4-(2-chloro-4-fluorophenylsulfonyl)-1-(1-(4-chlorophenyl)cyclopropanecarbonyl)-N—((S)-1-(cyclopropylamino)-1,2-dioxohexan-3-yl)pyrrolidine-2-carboxamide] | 9.4 nM | 0.527 nM | 35 nM | 83.2 nM |
| CC[C@H](NC(=O)[C@@H]1C[C@@H](S(=O)(=O)c2ccccc2Cl)CN1C(=O)C1(c2ccc(Cl)cc2)CC1)C(=O)C(=O)NC1CCOCC1 [Example 53, (2S,4R)-1-(1-(4-chlorophenyl)cyclopropanecarbonyl)-4-(2-chlorophenylsulfonyl)-N—((S)-1,2-dioxo-1-(tetrahydro-2H-pyran-4-ylamino)pentan-3-yl)pyrrolidine-2-carboxamide] | 1.7 nM | 0.676 nM | 39.3 nM | 188 nM |
| CC[C@H](NC(=O)[C@@H]1C[C@@H](S(=O)(=O)c2ccccc2Cl)CN1C(=O)C1(c2ccc(Cl)cc2)CC1)C(=O)C(=O)NCC(C)C [Example 55, (2S,4R)-1-(1-(4-chlorophenyl)cyclopropanecarbonyl)-4-(2-chlorophenylsulfonyl)-N—((S)-1-(isobutylamino)-1,2-dioxopentan-3-yl)pyrrolidine-2-carboxamide] | 2.6 nM | 0.876 nM | 56.5 nM | 61.6 nM |
| CC[C@H](NC(=O)[C@@H]1C[C@@H](S(=O)(=O)c2ccc(N3CCOCC3)cc2Cl)CN1C(=O)C1(c2ccc(Cl)cc2)CC1)C(=O)C(=O)NC1CC1 [Example 56, (2S,4R)-4-(2-chloro-4-morpholinophenylsulfonyl)-1-(1-(4-chlorophenyl)cyclopropanecarbonyl)-N—((S)-1-(cyclopropylamino)-1,2-dioxopentan-3-yl)pyrrolidine-2-carboxamide] | 20.6 nM | 2.57 nM | 65.4 nM | 101 nM |
| CCC[C@H](NC(=O)[C@@H]1C[C@@H](S(=O)(=O)c2ccc(N3CCOCC3)cc2Cl)CN1C(=O)C1(c2ccc(Cl)cc2)CC1)C(=O)C(=O)NC1CC1 [Example 57, (2S,4R)-4-(2-chloro-4-morpholinophenylsulfonyl)-1-(1-(4-chlorophenyl)cyclopropanecarbonyl)-N—((S)-1-(cyclopropylamino)-1,2-dioxohexan-3-yl)pyrrolidine-2-carboxamide] | 24.9 nM | 3.33 nM | 75 nM | 93.2 nM |
| CC(C)C[C@H](NC(=O)[C@@H]1C[C@@H](S(=O)(=O)c2ccccc2Cl)CN1C(=O)C1(c2ncc(Cl)cc2F)CC1)C(=O)C(=O)NC1CC1 [Example 59, (2S,4R)-1-(1-(5-chloro-3-fluoropyridin-2-yl)cyclopropanecarbonyl)-4-(2-chlorophenylsulfonyl)-N—((S)-1-(cyclopropylamino)-5-methyl-1,2-dioxohexan-3-yl)pyrrolidine-2-carboxamide] | 6.4 nM | 2.61 nM | 141 nM | 518 nM |
| CCCCNC(=O)C(=O)[C@H](CC)NC(=O)[C@@H]1C[C@@H](S(=O)(=O)c2ccccc2Cl)CN1C(=O)C1(c2ncc(Cl)cc2F)CC1 [Example 60, (2S,4R)—N—((S)-1-(butylamino)-1,2-dioxopentan-3-yl)-1-(1-(5-chloro-3-fluoropyridin-2-yl)cyclopropanecarbonyl)-4-(2-chlorophenylsulfonyl)pyrrolidine-2-carboxamide] | 6.1 nM | 2.87 nM | 144 nM | 354 nM |
| CCCCNC(=O)C(=O)[C@H](CCC)NC(=O)[C@@H]1C[C@@H](S(=O)(=O)c2ccccc2Cl)CN1C(=O)C1(c2ncc(Cl)cc2F)CC1 [Example 61, (2S,4R)—N—((S)-1-(butylamino)-1,2-dioxohexan-3-yl)-1-(1-(5-chloro-3-fluoropyridin-2-yl)cyclopropanecarbonyl)-4-(2-chlorophenylsulfonyl)pyrrolidine-2-carboxamide] | 6.2 nM | 2.93 nM | 106 nM | 172 nM |
| CCC[C@H](NC(=O)[C@@H]1C[C@@H](S(=O)(=O)c2ccccc2Cl)CN1C(=O)C1(c2ncc(Cl)cc2F)CC1)C(=O)C(=O)NCc1ccccc1 [Example 62, (2S,4R)—N—((S)-1-(benzylamino)-1,2-dioxohexan-3-yl)-1-(1-(5-chloro-3-fluoropyridin-2-yl)cyclopropanecarbonyl)-4-(2-chlorophenylsulfonyl)pyrrolidine-2-carboxamide] | 6 nM | 2.35 nM | 41.2 nM | 120 nM |
